The values below come from publication PMC5755953, “Identification of Allosteric Modulators of Metabotropic Glutamate 7 Receptor Using Proteochemometric Modeling” (Journal of Chemical Information and Modeling, 2017).

Where only a bound is given, the exact number is not on record here.

In one assay the target is T1, mGlu7 receptor (Homo sapiens, UniProt Q14831).
T1 construct: expressed in transfected cells; host or cells: HEK 293 cells
Briefly: mGlu7 PAM assay (Ca2+ response, concentration response). In kind it is cell-based. The note with it: confirmed hits of virtual screening; for EC50: concentration response, read-out: mGlu7 PAM pEC50 (converted).

A further assay relates to mGlu1 to mGlu8 receptor. The assay is described as follows: mGlu receptor panel selectivity assays (activation or inactivation). Format: cell-based. The following applies: up to concentration cutoffs of 10 μM. As for the experimental part: Active hits from the VS were sourced from the Janssen corporate compound collection, no new synthesis was performed at this time, and batch purity information is provided in the Supporting Information (Table S5). The selectivity of the hits 1 to 4 was assessed by in vitro screening in the same panel of mGlu1 to mGlu8 receptor activation or inactivation assays.
(§1) Method for selectivity assays mGlu receptor panel selectivity assays: Ca2+ assays with human mGlu1, 3, 5, 7, or 8 receptor expressing HEK 293 cells were performed as reported in Lavreysen et al. (2013), except for a slight change in the procedure for mGlu5: cells expressing the human mGlu5 receptor were seeded at 40,000 cells/well in MW384. TwentyEfour hours after seeding, cells were incubated for 90 min in Ca2+ assay kit (Molecular Devices) dissolved in saline PBS supplemented with 5 mmol/L probenecid, pH 7.4 (f.c. 2.5 mmol/L probenecid as loading buffer was added on the cell layer without removal of medium) before measurements. Measurement of [35S]GTPγS binding to membranes from CHO cells expressing the rat mGlu6 receptor and membranes from L929sA cells expressing the human mGlu4 receptor were conducted also as described in Lavreysen et al.
(§2) Lavreysen H, et al. Pharmacological Characterization of JNJE40068782, a New Potent, Selective, and Systemically Active Positive Allosteric Modulator of the mGlu2 Receptor and Its

In the next assay the target is T2, mGlu4 (Homo sapiens, UniProt Q14833).
T2 construct: expressed in transfected cells; host or cells: L929sA cells (membranes)
T2 sequence (Q14833 33-912): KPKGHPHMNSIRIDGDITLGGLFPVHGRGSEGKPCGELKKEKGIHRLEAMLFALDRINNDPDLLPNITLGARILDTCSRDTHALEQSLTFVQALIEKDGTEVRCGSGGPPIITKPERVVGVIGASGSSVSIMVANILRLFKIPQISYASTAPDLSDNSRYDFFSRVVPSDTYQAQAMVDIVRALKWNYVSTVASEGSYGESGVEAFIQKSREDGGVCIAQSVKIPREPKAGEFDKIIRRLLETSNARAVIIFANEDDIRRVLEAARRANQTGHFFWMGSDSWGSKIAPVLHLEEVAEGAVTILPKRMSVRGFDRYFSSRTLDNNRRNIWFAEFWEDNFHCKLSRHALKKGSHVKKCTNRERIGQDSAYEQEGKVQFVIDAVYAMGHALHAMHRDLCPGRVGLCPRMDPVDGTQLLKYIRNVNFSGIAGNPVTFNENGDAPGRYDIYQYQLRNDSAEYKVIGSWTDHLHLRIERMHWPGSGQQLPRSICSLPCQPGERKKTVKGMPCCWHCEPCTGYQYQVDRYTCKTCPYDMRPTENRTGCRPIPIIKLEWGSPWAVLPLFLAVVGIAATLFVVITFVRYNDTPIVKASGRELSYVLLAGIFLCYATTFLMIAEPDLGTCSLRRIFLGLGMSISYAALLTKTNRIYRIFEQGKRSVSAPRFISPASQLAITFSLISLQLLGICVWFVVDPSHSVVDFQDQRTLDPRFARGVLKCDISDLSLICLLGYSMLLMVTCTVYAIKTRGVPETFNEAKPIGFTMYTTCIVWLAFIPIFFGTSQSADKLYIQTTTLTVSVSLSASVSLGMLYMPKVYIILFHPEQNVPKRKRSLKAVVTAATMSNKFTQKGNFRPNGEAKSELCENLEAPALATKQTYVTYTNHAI
The assay is described as follows: mGlu4 agonism assay ([35S]GTPγS binding to membranes). Format: biochemical. The following applies: selectivity panel; read-out: pEC50 in mGlu4 agonism assay (converted). As to the method: as §1, §2
(In general: GTPγS resists hydrolysis and so accumulates on activated G proteins.)

The subject of assay [1] is mGlu7. More on the design: method as in PMID 17609420. The note with it: known reference compound, allosteric antagonist/NAM; cited from earlier work.
In assay [2] the test system is mGlu7. More on the design: method as in PMID 16339898. The note with it: known reference compound, agonist/PAM; cited from earlier work.

T1 sequence (Q14831 35-915): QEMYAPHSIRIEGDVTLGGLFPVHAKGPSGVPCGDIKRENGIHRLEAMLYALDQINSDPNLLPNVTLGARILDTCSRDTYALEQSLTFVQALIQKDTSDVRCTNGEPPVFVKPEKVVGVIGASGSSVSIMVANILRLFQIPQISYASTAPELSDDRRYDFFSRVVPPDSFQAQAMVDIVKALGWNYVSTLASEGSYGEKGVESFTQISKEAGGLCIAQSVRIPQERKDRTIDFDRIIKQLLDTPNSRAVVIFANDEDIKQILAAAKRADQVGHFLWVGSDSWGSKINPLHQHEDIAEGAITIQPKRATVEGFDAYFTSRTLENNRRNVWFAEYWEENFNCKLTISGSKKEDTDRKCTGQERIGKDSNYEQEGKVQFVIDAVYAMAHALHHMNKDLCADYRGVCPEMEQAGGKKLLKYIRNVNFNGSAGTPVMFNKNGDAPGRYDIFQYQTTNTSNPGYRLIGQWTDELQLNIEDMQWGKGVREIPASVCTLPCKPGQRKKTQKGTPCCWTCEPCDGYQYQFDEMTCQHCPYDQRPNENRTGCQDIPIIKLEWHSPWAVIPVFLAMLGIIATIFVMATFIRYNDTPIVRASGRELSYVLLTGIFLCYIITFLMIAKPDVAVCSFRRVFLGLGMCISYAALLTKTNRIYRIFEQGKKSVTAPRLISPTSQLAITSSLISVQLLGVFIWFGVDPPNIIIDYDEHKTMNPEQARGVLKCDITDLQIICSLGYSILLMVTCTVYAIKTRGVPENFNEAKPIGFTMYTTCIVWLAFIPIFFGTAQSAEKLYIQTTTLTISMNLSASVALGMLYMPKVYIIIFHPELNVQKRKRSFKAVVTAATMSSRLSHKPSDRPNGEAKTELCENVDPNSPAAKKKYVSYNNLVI

As to `COc1c(F)cccc1COc1ccc(C(=O)N[C@H](C)C(C)(C)C)cn1` [compound 2], at mGlu7 receptor, the maximal effect (Emax) is 103% and the EC50 was 12.6 µM. For the same compound, the “activity in panel of mGlu1 to mGlu8 receptor activation or inactivation assays” value (“activity in panel of mGlu1” for short) with mGlu1 to mGlu8 receptor is listed as “No activity”.
Consider `CC1CCN(c2nc(-c3ccncc3)nc3cnccc23)CC1` [compound 6], for which, at mGlu7 receptor, the Emax is 65% and the EC50 is above 30.2 µM.
Turning to `CNC(=O)N1CCCC(CN2CCC(OC(c3ccccc3)c3ccccc3)CC2)C1` (stereo not shown) [compound 3], the EC50 on mGlu4 is 0.631 µM.
Turning to `CC(C)(C)OC(=O)N1CCc2ccc(-n3cc(-c4ccncc4)cn3)cc2CC1` [compound 4], on mGlu7 receptor, the Emax was found to be 57% and the EC50 is 31.6 µM. In addition, the “activity in panel of mGlu1” value in the assay with mGlu1 to mGlu8 receptor is recorded as “No activity”.
Consider `COc1ccc(-c2cc3onc(-c4ccncc4)c3c(=O)n2C)cc1` [MMPIP], for which, in the assay on mGlu7 [1], the “mGlu7-ant pIC50” value was 7.
Turning to `COc1cc(F)cc(COc2ccc(C(=O)N[C@H](C)C(C)(C)C)cn2)c1` [compound 1], on mGlu7 receptor, the maximal response (Emax) is 86% and the EC50 is 12.6 µM. Besides, in the assay with mGlu1 to mGlu8 receptor, the “activity in panel of mGlu1” value is “No activity”.
For the compound `COc1ccc(CN2CCc3c(nc(N4CCC(C)CC4)[nH]c3=O)C2)cc1` [compound 5], at mGlu7 receptor, the Emax came to 99% and the EC50 was 15.8 µM.
For `c1ccc(C(NCCNC(c2ccccc2)c2ccccc2)c2ccccc2)cc1` [AMN-082], the “PAM activity reported in cAMP and Ca2+ assays” value with mGlu7 [2] is reported as “Active PAM reported in cAMP but not Ca2+ assays”.

By Emax is commonly meant the maximal effect, on the per cent scale that the assay sets.
